Data published in PMC10223552 (Pharmaceuticals, 2023).
“Also recorded” adds a separate entry of the source.

Legend:
[1] = tested on: MCF-7 breast cancer cells; experiment: Apoptosis/necrosis detection (Annexin V-FITC/PI, image cytometry), MCF-7; type: cell-based, human; settings: MCF-7, IC50 concentration, 48 h
Method: The MTT test results prompted further study. Staining with propidium iodide and Annexin V-FITC was performed to distinguish apoptotic from necrotic cell death.
Apoptosis was analyzed using the NucleoCounter® NC-3000™ (Chemometec Inc., Lillerød, Denmark) according to the manufacturer’s protocol using Annexin V from Biotium (Fremont, CA, USA). MCF-7 and MDA-MB-231 cells were seeded into 6-well plates (2 × 10^5 cells/mL) and cultured until 70–80% confluence was reached. […] Scatter plots were used to determine the proportion of healthy cells (Annexin V-negative/PI-negative cells), early apoptotic cells (Annexin V-positive/PI-negative cells), late apoptotic cells (Annexin V-positive/PI-positive cells), and necrotic cells (Annexin V-negative/PI-positive cells). Data were derived from three independent experiments with three replicates.

[2] = In vitro metabolic stability in human liver microsomes; type: in vitro ADME
Method: In addition to biological activity, drug-likeness is equally important in drug discovery, and should be considered at the early stage of the drug development process. Therefore, ADS10310 was subjected to testing for several ADME-Tox parameters, including metabolic stability.
(§1) All assays and protocols used for the determination of compound ADME-Tox parameters were described previously. In brief, the metabolic stability assay was performed on HLMs, purchased from Sigma-Aldrich (St. Louis, MO, USA). ADS10310 was incubated with HLMs for 120 min in Tris buffer (pH = 7.4) at 37 °C. NADPH regeneration system Promega (Madison, WI, USA) was added to initiate whereas methanol was added to terminate the reaction. The LC/MS analyses of the centrifuged reaction mixture were obtained on Waters ACQUITY™ TQD system (Waters, Milford, CT, USA). The in silico prediction of most probable sites of ADS10310 metabolism was performed by MetaSite 6.0.1 software (Molecular Discovery Ltd., Hertfordshire, UK). To predict potential DDIs the CYP3A4 and CYP2D6 P450-Glo™ kits provided by Promega (Madison, WI, USA) were used according to provided protocols. The results were calculated from two independent experiments.

hepatoma HepG2 cell line = experiment: Hepatotoxicity assay (MTS), HepG2; type: cell-based
Method: The cells were grown in Minimum Essential Media (MEM) supplemented with 10% fetal bovine serum (FBS) in a humidified atmosphere of 5% CO2 to reach 70–80% confluency. The cells were seeded next into 96-well plates at a concentration of 0.7 × 10^4 cells/well. […] The 1% DMSO in culture media was used as the vehicle control.

CYP3A4 = biological target: T1, CYP3A4 (Homo sapiens, UniProt P08684); experiment: Influence on CYP3A4 activity (P450-Glo); type: in vitro ADME
T1 construct: purchased Promega (Madison, WI, USA)
T1 sequence (P08684 whole entry): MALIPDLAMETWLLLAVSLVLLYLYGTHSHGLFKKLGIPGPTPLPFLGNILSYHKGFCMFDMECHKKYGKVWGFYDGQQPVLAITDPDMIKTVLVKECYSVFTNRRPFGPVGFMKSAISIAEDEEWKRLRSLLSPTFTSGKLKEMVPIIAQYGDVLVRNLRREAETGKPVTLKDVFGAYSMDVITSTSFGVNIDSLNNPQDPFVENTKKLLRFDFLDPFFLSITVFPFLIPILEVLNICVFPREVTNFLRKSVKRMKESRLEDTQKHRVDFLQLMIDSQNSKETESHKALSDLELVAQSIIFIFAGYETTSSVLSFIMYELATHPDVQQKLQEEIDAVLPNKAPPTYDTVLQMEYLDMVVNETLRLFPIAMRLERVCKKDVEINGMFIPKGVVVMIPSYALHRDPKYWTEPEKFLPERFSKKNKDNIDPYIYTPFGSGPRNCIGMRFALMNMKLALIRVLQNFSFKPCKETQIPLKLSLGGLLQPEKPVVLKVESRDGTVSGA
Method: (§2) Treatment of elderly patients who suffer from cancer or degenerative CNS diseases usually requires the use of more than one medication at the same time, which can result in a greater risk of DDIs. […] The results were compared to the selective CYP3A4 inhibitor ketoconazole and selective CYP2D6 inhibitor quinidine.
as §1, with “To predict potential DDIs the CYP3A4 and CYP2D6 P450-Glo™ kits provided by Promega (Madison, WI, USA) were used according to provided protocols.” left out
(§3) The luminescent signal and the absorbances (measured at 490 nm) in DDIs and safety assays were measured by using an EnSpire PerkinElmer microplate reader (Waltham, MA, USA). […]

CYP2D6 = biological target: T2, CYP2D6 (Homo sapiens, UniProt P10635); experiment: Influence on CYP2D6 activity (P450-Glo); type: in vitro ADME
T2 construct: purchased Promega (Madison, WI, USA)
T2 sequence (P10635 whole entry): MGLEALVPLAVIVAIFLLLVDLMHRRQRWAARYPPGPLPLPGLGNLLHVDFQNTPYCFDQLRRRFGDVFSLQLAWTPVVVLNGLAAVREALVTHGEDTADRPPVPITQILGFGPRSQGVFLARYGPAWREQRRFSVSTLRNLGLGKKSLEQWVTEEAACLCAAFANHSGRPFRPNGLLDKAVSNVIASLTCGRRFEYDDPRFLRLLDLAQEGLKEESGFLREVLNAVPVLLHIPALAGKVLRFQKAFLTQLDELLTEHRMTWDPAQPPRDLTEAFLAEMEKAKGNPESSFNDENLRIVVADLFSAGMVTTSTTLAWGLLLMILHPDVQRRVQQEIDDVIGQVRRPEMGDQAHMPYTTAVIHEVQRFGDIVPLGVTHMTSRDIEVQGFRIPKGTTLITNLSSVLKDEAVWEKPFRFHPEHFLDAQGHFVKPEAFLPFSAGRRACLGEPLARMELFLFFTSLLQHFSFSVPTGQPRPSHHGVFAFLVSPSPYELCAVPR
Method: as §2
as §1, with “To predict potential DDIs the CYP3A4 and CYP2D6 P450-Glo™ kits provided by Promega (Madison, WI, USA) were used according to provided protocols.” left out
as §3

Structure (SMILES) | early apoptotic cells (Q1lr) [1] | late apoptotic cells (Q1ur) [1] | Substrate Remaining ([2]; 120 min incubation with HLMs, Tris buffer pH 7.4, 37 °C) | Metabolic Pathway ([2]; HLMs, metabolites M1-M3 by LC/MS) | decrease of hepatoma HepG2 cell viability (hepatoma HepG2 cell line; 100 µM, 72 h) | HepG2 cell viability at concentrations up to 50 µM (hepatoma HepG2 cell line; 72 h) | hepatotoxic activity (in words) (hepatoma HepG2 cell line; HepG2, 72 h, 0.01-100 µM) | influence on CYP3A4 activity (CYP3A4) | CYP2D6 inhibition (in words) (CYP2D6) | decrease of CYP2D6 activity (CYP2D6; lowest tested dose of 0.1 µM)
N=C(N)N(CCCCN1CCN(CCCCCCCOc2ccccc2)CC1)Cc1ccccc1 [ADS1017] | 2% | 38% |  |  |  |  |  |  |  | 
Cl.Cl.N=C(NCCCCc1ccc(Cl)cc1)NCCCCN1CCCCC1 [ADS10310] |  |  | 73.6% | decomposition and triple hydroxylation | ~ 40% | no decrease | weak hepatotoxic activity | did not show any influence on CYP3A4 activity | strongly inhibited CYP2D6; also recorded: strong inhibitor of CYP2D6 activity | more than 50%
